The source of these data is patent publication US7198804B2, “Crude drug composition for preventing and treating gastrointestinal dyskinetic diseases” (Helixir Co., Ltd., priority 2002, dated 2007).

Where a name gives a salt, the structure may show the parent alone.

The subject of one data set is rodents. Conditions: cited from earlier work.
Data set [1] has as its system gastrointestinal motility. Briefly: Gastrointestinal transit (GIT) of charcoal meal in mice. It is filed as in vivo, ICR derived mice. As to conditions: for GIT: mean±S.E.M. How it is done: Female ICR derived mice (Seoul National University) weighing 22±2 grams were used. All animals were maintained in a controlled environment with temperatures at 22° C.–24° C. and humidity at 60%–80% with 12 hours of light and dark cycles for at least one week prior to use. 9 groups of 8 ICR derived female mice were fasted with free access to water for 16 hours prior to testing.
For the estimation of the effect on gastrointestinal motility, 0.1 g of the brown powder of each formulation obtained in Example 1, was dissolved in 1 ml of 2% Tween 80 (Wako, Japan) and administrated orally to the mice.
Atropine sulfate (Sigma, USA) was used for the negative control in the experiment, which is known to induce smooth muscle relaxation. Mosapride citrate was administered at 20 mg/kg. Each crude drug composition of 6 formulations prepared in Example 1, was administered at 1.0 g/kg. At 60 minutes post dosing, the animals were given a suspension of 5% activated charcoal (Sigma, USA) in a 10% arabic gum (Sigma, USA) solution (0.3 ml/animal p.o.) and sacrificed 15 minutes later.
The intestine was removed and the length of the gut in cm (GL) as well as distance of charcoal movement from the pylorus to the beginning of the charcoal column in cm (CP), was measured. Gastrointestinal transit (GIT) has been calculated as below Formula 1. The mean GIT value of each group has been compared to that of the vehicle control. GIT(%)=(CP/GL)×100 Formula 1
Values were expressed as means±S.E.M. Students' t-test was used for the statistical analysis of the results of gastrointestinal transit. Probability values (p) less than 0.05 were considered to be significant.
PG202, prepared in Example 1, was administered into the mice orally at concentrations of 0.1 g/kg, 1.0 g/kg, and 5.0 g/kg. The control group was administered with the vehicle (2% Tween 80) at 10 ml/kg. At 60 minutes post dosing, the animals were given a suspension of 5% activated charcoal (Sigma, USA) in a 10% Arabic gum (Sigma, USA) solution (0.3 ml/animal p.o.) and sacrificed 15 minutes later and the gastrointestinal transit (GIT) was examined according to the Formula 1. Data have been expressed as means±S.E.M.*p<0.05.
PG202 was administrated orally at 1.0 g/kg to the test group, 2% Tween 80 (Wako, Japan) at 10 ml/kg to control group, Mosapride citrate at 20 mg/kg to positive control group, Atropine sulfate (Sigma, USA) at 100 mg/kg to negative control group. Data have been expressed as means±S.E.M.*p<0.05.
At 60 minutes post dosing, the animals were given a suspension of 5% activated charcoal (Sigma, USA) in a 10% arabic gum (Sigma, USA) solution (0.3 ml /animal p.o.) and sacrificed 15 minutes later. GIT (%) values were determined according to the Formula 1.

As for `CCOc1cc(N)c(Cl)cc1C(=O)NCC1CN(Cc2ccc(F)cc2)CCO1` (centres unmarked) [mosapride citrate], the “incidence of hepatocellular adenoma and thyroid follicular cell adenoma” value with rodents is listed as “increased”. In data set [1] (20 mg/kg p.o.), the “increase of GIT compared to the control” value worked out at 21%. This compound yielded a GIT in data set [1] (20 mg/kg p.o., positive control) of 63.7±5.2%.
On to `CN1[C@@H]2CC[C@H]1CC(OC(=O)C(CO)c1ccccc1)C2.CN1[C@@H]2CC[C@H]1CC(OC(=O)C(CO)c1ccccc1)C2.O=S(=O)(O)O` (some centres unmarked) [Atropine, Atropine sulfate], for which, in data set [1] (100 mg/kg p.o.), the “decrease of GIT in comparison to the control group” value is reported as 35%. In data set [1] (100 mg/kg p.o., negative control), this compound had a GIT of 35.4±3.4%.
